Assay results as given in publication PMC3314689, “Characterization of Cholinesterases in Plasma of Three Portuguese Native Bird Species: Application to Biomonitoring” (PLoS ONE, 2012).
Where two headings read alike, the source gives them in different places.

Tests used:
Test in all cases: Ellman microplate assay, Michaelis-Menten fit
Conditions in all cases: apparent, diluted plasma, 0.1 M phosphate pH 7.2, mean of 3 individuals
[1] = tested on: T1, plasma ChE / plasma BChE of M. bassanus; type: biochemical, Morus bassanus
T1 construct: native enzyme in diluted EDTA plasma, not purified
From the text: Ellman microplate assay, Michaelis-Menten fit on plasma ChE / plasma BChE of M. bassanus

[2] = tested on: T2, plasma ChE / plasma BChE of C. ciconia; type: biochemical
T2 construct: native enzyme in diluted EDTA plasma, not purified
From the text: Ellman microplate assay, Michaelis-Menten fit on plasma ChE / plasma BChE of C. ciconia

[3] = tested on: T3, plasma ChE / plasma BChE of A. cinerea; type: biochemical, Ardea cinerea
T3 construct: native enzyme in diluted EDTA plasma, not purified
From the text: Ellman microplate assay, Michaelis-Menten fit on plasma ChE / plasma BChE of A. cinerea

CCCC(=O)SCC[N+](C)(C)C [S-butyrylthiocholine iodide]
Km ([1]; read-out: BuSCh / Km): 19.4 µM | Km ([2]; read-out: BuSCh / Km): 4.8 µM | Km ([3]; read-out: BuSCh / Km): 167 µM

CC(=O)SCC[N+](C)(C)C [acetylthiocholine iodide]
Km ([1]; read-out: AcSCh / Km): 15.3 µM | Km ([2]; read-out: AcSCh / Km): 10.7 µM | Km ([3]; read-out: AcSCh / Km): 247 µM

CCC(=O)SCC[N+](C)(C)C [propionylthiocholine iodide]
Km ([1]; read-out: PrSCh / Km): 21.4 µM | Km ([2]; read-out: PrSCh / Km): 6.1 µM | Km ([3]; read-out: PrSCh / Km): 150 µM
